# Source: patent US8952024B2, “Herbicidal pyrimidone derivatives” (E I du Pont de Nemours and Company, priority 2009, dated 2015)
# Columns and labels:
# Assay type in all cases: in vivo
# [1] = tested on: windgrass (Apera spica-venti); assay: Test B postemergence plant response; settings: Postemergence
# Procedure, shortened: (§1)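 Plants grown in peat/vermiculite medium were sprayed postemergence at 2–18 cm height (1- to 4-leaf stage). After 13–15 days in the greenhouse, response was rated visually against untreated controls on a 0–100 scale (0 no effect, 100 complete control).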
# [2] = tested on: winter barley (Hordeum vulgare); assay: Test B postemergence plant response; settings: Postemergence
# Procedure, shortened: as §1
# [3] = tested on: canarygrass (Phalaris minor); assay: Test B postemergence plant response; settings: Postemergence
# Procedure, shortened: as §1
# [4] = tested on: chickweed (Stellaria media); assay: Test B postemergence plant response; settings: Postemergence
# Procedure, shortened: as §1
# corn (Zea mays) = assay: Test B pre-/postemergence plant response
# From the text: (§2) Seeds of plant species selected from blackgrass (Alopecurus myosuroides), downy bromegrass (Bromus tectorum), green foxtail (Setaria viridis), Italian ryegrass (Lolium multiflorum), wheat (Triticum aestivum), wild oat (Avena fatua), deadnettle (henbit deadnettle, Lamium amplexicaule), galium (catchweed bedstraw, Galium aparine), bermudagrass (Cynodon dactylon), Surinam grass (Brachiaria decumbens), cocklebur (Xanthium strumarium), corn (Zea mays), large crabgrass (Digitaria sanguinalis), woolly cupgrass (Eriochloa villosa), giant foxtail (Setaria faberii), goosegrass (Eleusine indica), johnsongrass (Sorghum halepense), kochia (Kochia scoparia), lambsquarters (Chenopodium album), morningglory (Ipomoea coccinea), nightshade (eastern black nightshade, Solanum ptycanthum), yellow nutsedge (Cyperus esculentus), pigweed (Amaranthus retroflexus), ragweed (common ragweed, Ambrosia elatior), Russian thistle (Salsola kali), soybean (Glycine max), sunflower (common oilseed sunflower, Helianthus annuus) and velvetleaf (Abutilon theophrasti) were planted into a blend of loam soil and sand and treated preemergence with test compounds formulated in a non-phytotoxic solvent mixture which included a surfactant.
# (§3) At the same time, plants selected from these crop and weed species and also winter barley (Hordeum vulgare), canarygrass (Phalaris minor), chickweed (Stellaria media) and windgrass (Apera spica-venti) were planted in pots containing Redi-Earth® planting medium (Scotts Company, 14111 Scottslawn Road, Marysville, Ohio 43041) comprising spaghnum peat moss, vermiculite, wetting agent and starter nutrients and treated with postemergence applications of some of the test chemicals formulated in the same manner. Plants ranged in height from 2 to 18 cm (1- to 4-leaf stage) for postemergence treatments.
# (§4) Treated plants and controls were maintained in a greenhouse for 13 to 15 days, after which time all treated plants were visually evaluated and compared to controls. Plant response ratings, summarized in Table B, are based on a scale of 0 to 100 where 0 is no effect and 100 is complete control. A dash (-) response means no test result.
# soybean (Glycine max) = assay: Test B pre-/postemergence plant response
# From the text: as §2, §3, §4
# [5] = tested on: ragweed (common ragweed, Ambrosia elatior); assay: Test B pre-/postemergence plant response
# From the text: as §2, §3, §4
# [6] = tested on: lambsquarters (Chenopodium album); assay: Test B pre-/postemergence plant response
# From the text: as §2, §3, §4
# [7] = tested on: bermudagrass (Cynodon dactylon); assay: Test B pre-/postemergence plant response
# From the text: as §2, §3, §4
# [8] = tested on: Surinam grass (Brachiaria decumbens); assay: Test B pre-/postemergence plant response
# From the text: as §2, §3, §4
# [9] = 31 g ai/ha, scale 0 to 100 (0 no effect, 100 complete control)
# [10] = 62 g ai/ha, scale 0 (no effect) to 100 (complete control), 13 to 15 days
# [11] = 125 g ai/ha, visual rating after 13 to 15 days, scale 0 (no effect) to 100 (complete control)
# [12] = 250 g ai/ha, Preemergence, 0 to 100 scale
# [13] = Postemergence, 31 g ai/ha, scale 0 to 100 (0 no effect, 100 complete control)
# [14] = Postemergence, 62 g ai/ha, scale 0 (no effect) to 100 (complete control), 13 to 15 days
# [15] = Postemergence, 125 g ai/ha, visual rating after 13 to 15 days, scale 0 (no effect) to 100 (complete control)
# [16] = Postemergence, 250 g ai/ha, scale 0 to 100
# [17] = Preemergence, 31 g ai/ha, scale 0 to 100 (0 no effect, 100 complete control)
# [18] = Preemergence, 62 g ai/ha, scale 0 to 100, 0 no effect, 100 complete control
# [19] = Preemergence, 125 g ai/ha, 0 to 100 scale
compound,measurement,setting,value
O=C1CCCC(O)=C1C(=O)c1cnc(-c2ccccc2)n(-c2ccc(F)cc2)c1=O [Compound 24],"Plant response rating, Windgrass",[1]; [9],20
same,"Plant response rating, Windgrass",[1]; [10],30
same,"Plant response rating, Windgrass",[1]; [11],60
same,Windgrass plant response rating,"[1]; 250 g ai/ha, scale 0 to 100",80
same,"Plant response rating, Barley",[2]; [9],0
same,"Plant response rating, Barley",[2]; [10],5
same,"Plant response rating, Barley","[2]; 125 g ai/ha, scale 0 to 100 (0 no effect, 100 complete control), 13 to 15 days",50
same,Barley plant response rating,"[2]; 250 g ai/ha, scale 0 to 100",70
same,"Plant response rating, Canarygrass",[3]; [9],40
same,"Plant response rating, Canarygrass",[3]; [10],40
same,Canarygrass plant response rating,"[3]; 250 g ai/ha, scale 0 to 100",60
same,"Plant response rating, Chickweed",[4]; [9],80
same,"Plant response rating, Chickweed",[4]; [10],90
same,"Plant response rating, Chickweed",[4]; [11],95
same,Chickweed plant response rating,"[4]; 250 g ai/ha, scale 0 to 100",100
same,"Plant response rating, Corn",corn (Zea mays); [12],5
same,"Plant response rating, Corn",corn (Zea mays); [13],30
same,"Plant response rating, Corn",corn (Zea mays); [14],50
same,"Plant response rating, Corn",corn (Zea mays); [15],85
same,Corn plant response rating,corn (Zea mays); [16],85
same,"Plant response rating, Corn",corn (Zea mays); [17],0
same,"Plant response rating, Corn",corn (Zea mays); [18],0
same,Corn plant response rating,corn (Zea mays); [19],0
same,"Plant response rating, Soybean",soybean (Glycine max); [12],85
same,"Plant response rating, Soybean",soybean (Glycine max); [13],85
same,"Plant response rating, Soybean",soybean (Glycine max); [14],95
same,"Plant response rating, Soybean",soybean (Glycine max); [15],95
same,Soybean plant response rating,soybean (Glycine max); [16],100
same,"Plant response rating, Soybean",soybean (Glycine max); [17],45
same,"Plant response rating, Soybean",soybean (Glycine max); [18],60
same,Soybean plant response rating,soybean (Glycine max); [19],80
same,"Plant response rating, Ragweed",[5]; [12],100
same,"Plant response rating, Ragweed",[5]; [13],70
same,"Plant response rating, Ragweed",[5]; [14],80
same,"Plant response rating, Ragweed",[5]; [15],90
same,Ragweed plant response rating,[5]; [16],98
same,"Plant response rating, Ragweed",[5]; [17],85
same,"Plant response rating, Ragweed",[5]; [18],90
same,Ragweed plant response rating,[5]; [19],98
same,"Plant response rating, Lambsquarters",[6]; [12],100
same,"Plant response rating, Lambsquarters",[6]; [13],90
same,"Plant response rating, Lambsquarters",[6]; [14],90
same,"Plant response rating, Lambsquarters",[6]; [15],90
same,Lambsquarters plant response rating,[6]; [16],100
same,"Plant response rating, Lambsquarters",[6]; [17],98
same,"Plant response rating, Lambsquarters",[6]; [18],100
same,Lambsquarters plant response rating,[6]; [19],100
same,"Plant response rating, Bermudagrass",[7]; [12],100
same,"Plant response rating, Bermudagrass",[7]; [13],85
same,"Plant response rating, Bermudagrass",[7]; [14],95
same,"Plant response rating, Bermudagrass","[7]; Postemergence, 125 g ai/ha, scale 0 to 100 (0 no effect, 100 complete control), 13 to 15 days",100
same,Bermudagrass plant response rating,[7]; [16],100
same,"Plant response rating, Bermudagrass",[7]; [17],95
same,"Plant response rating, Bermudagrass",[7]; [18],100
same,Bermudagrass plant response rating,[7]; [19],100
same,"Plant response rating, Surinam Grass",[8]; [12],100
same,"Plant response rating, Surinam Grass",[8]; [13],50
same,"Plant response rating, Surinam Grass",[8]; [14],55
same,"Plant response rating, Surinam Grass",[8]; [15],60
same,Surinam Grass plant response rating,[8]; [16],80
same,"Plant response rating, Surinam Grass",[8]; [17],65
same,"Plant response rating, Surinam Grass",[8]; [18],75
same,Surinam Grass plant response rating,[8]; [19],95
